Experiment: Immunization of rabbits with peptide-KLH conjugates, antibody detection by solid-phase ELISA / Western Blot
Assay type: in vivo
Details: high-titer epitope-specific anti-EPO antibodies
Description: In order to produce antibodies specific for EPO peptides, the peptide-KLH conjugates were emulsified with adjuvants and injected into rabbits in accordance with a 5-week immunization regimen. After this time the animals had produced specific antibodies and were bled.
A solid-phase ELISA was used to assay the sera for peptide or EPO specificity. The content of peptide-specific and EPO-specific antibodies in the antisera or in the antibody fractions which had been purified by affinity chromatography was determined in plastic microtiter plates, which were coated with purified EPO or with EPO peptides, using an enzyme-coupled anti-rabbit-Ig antiserum. In parallel with this, the antibodies were examined in a Western Blot to detect the specific EPO bands of 34–38 kDa.
Rabbits were immunized with […] of antigen per animal on each occasion for a period of 5 weeks. At the first immunization, the animals each received 0.4 mg of antigen in complete Freund's adjuvant (CFA) subcutaneously at 8 immunization sites in the vicinity of the lymph nodes. This was followed 2 weeks later by subcutaneous immunization with 0.8 mg of antigen/animal in CFA. After a further 2 weeks, the animals received intravenous administration of 0.1 mg of antigen in Aerosil on each of 5 consecutive days. 3 days later they were bled, and the individual antisera were obtained.
20 μg/ml EPO or EPO-specific peptides were coupled in carbonate buffer in plastic microtiter plates at 4° C. overnight. Before carrying out the assays, the plates were washed twice with PBS, saturated with PBS/0.5% BSA for 30 minutes and then washed three times with PBS.
The plates saturated with BSA were incubated with dilutions of the anti-EPO rabbit antisera or of the purified antibody fractions for 2 hours. After this time they were washed with PBS and incubated with anti-rabbit Ig anti-serum, which was coupled to alkaline phosphatase, for 2 hours. […] The reaction was stopped with 1 M NaOH after one hour, and the optical density at […] was measured. […]
With “CDSRVLERYLLEAKEAE [P4/1, EPO peptide, amino-acid positions 7 to 23]” the “Immunogenicity of the EPO peptide” value was “highly immunogenic”. In the case of “KRMEVGQQAVEV [P3/1, EPO peptide, amino-acid positions 52 to 63]”, the “Immunogenicity of the EPO peptide” value is reported as “highly immunogenic”. With “SSQPWEPLQLHV [P1/1, EPO peptide, amino-acid positions 84 to 95]” the “Immunogenicity of the EPO peptide” value was “highly immunogenic”.

Reference: patent publication US6932968B1, “Erythropoietin (EPO) peptides and antibodies directed against these” (Dade Behring Marburg GmbH, priority 1989, dated 2005)
